Consider four compounds from PubChem BioAssay AID1259407 (Chemical Carcinogenesis Research Information System (CCRIS), 2018).

Active and inactive are the calls of the source. How the calls were made is not given here.

In the data set the test system is CCRIS mutagenicity, Ames/micronucleus/aberration tests. As to the kind of experiment: CCRIS mutagenicity studies.
Where [1] appears, read: Test System: AMES SALMONELLA TYPHIMURIUM, Strain/Indicator: TA98, Metabolic Activation: NONE, Method: PREINCUBATION
Where [2] appears, read: Test System: AMES SALMONELLA TYPHIMURIUM, Strain/Indicator: TA98, Metabolic Activation: NONE, Method: STANDARD PLATE.
[3] abbreviates: Test System: AMES SALMONELLA TYPHIMURIUM, Strain/Indicator: TA98, Metabolic Activation: RAT, LIVER, S-9, AROCLOR 1254, Method: STANDARD PLATE.
The mark [4] stands for this setting: Test System: AMES SALMONELLA TYPHIMURIUM, Strain/Indicator: TA100, Metabolic Activation: NONE, Method: PREINCUBATION
Setting [5] is: Test System: AMES SALMONELLA TYPHIMURIUM, Strain/Indicator: TA100, Metabolic Activation: NONE, Method: STANDARD PLATE.
Where [6] appears, read: Test System: AMES SALMONELLA TYPHIMURIUM, Strain/Indicator: TA100, Metabolic Activation: RAT, LIVER, S-9, AROCLOR 1254, Method: STANDARD PLATE.

Take `CC(=O)OC(C)=O`: the mutagenic call by setting is: (Test System: AMES SALMONELLA TYPHIMURIUM, Strain/Indicator: TA98, Metabolic Activation: HAMSTER, LIVER, S-9, AROCLOR 1254, Method: STANDARD PLATE) “inactive; negative”; under setting [1], “inactive; negative”; under setting [2], “inactive; negative”; under setting [3], “inactive; negative”; (Test System: AMES SALMONELLA TYPHIMURIUM, Strain/Indicator: TA98, Metabolic Activation: RAT, LIVER, S-9, SODIUM PHENOBARBITAL AND 5,6-BENZOFLAVONE, Method: PREINCUBATION) “inactive; negative”; (Test System: AMES SALMONELLA TYPHIMURIUM, Strain/Indicator: TA100, Metabolic Activation: HAMSTER, LIVER, S-9, AROCLOR 1254, Method: STANDARD PLATE) “inactive; negative”. In addition, the mutagenic call is “inactive; negative” under setting [4]; “inactive; negative” under setting [5]; “inactive; negative” under setting [6]; “inactive; negative” (Test System: AMES SALMONELLA TYPHIMURIUM, Strain/Indicator: TA100, Metabolic Activation: RAT, LIVER, S-9, SODIUM PHENOBARBITAL AND 5,6-BENZOFLAVONE, Method: PREINCUBATION); “inactive; negative” (Test System: AMES SALMONELLA TYPHIMURIUM, Strain/Indicator: TA102, Metabolic Activation: NONE, Method: PREINCUBATION); “inactive; negative” (Test System: AMES SALMONELLA TYPHIMURIUM, Strain/Indicator: TA102, Metabolic Activation: RAT, LIVER, S-9, SODIUM PHENOBARBITAL AND 5,6-BENZOFLAVONE, Method: PREINCUBATION). For the same compound, the mutagenic call reads like this: (Test System: AMES SALMONELLA TYPHIMURIUM, Strain/Indicator: TA104, Metabolic Activation: NONE, Method: PREINCUBATION) “inactive; negative”; (Test System: AMES SALMONELLA TYPHIMURIUM, Strain/Indicator: TA104, Metabolic Activation: RAT, LIVER, S-9, SODIUM PHENOBARBITAL AND 5,6-BENZOFLAVONE, Method: PREINCUBATION) “inactive; negative”; (Test System: AMES SALMONELLA TYPHIMURIUM, Strain/Indicator: TA1535, Metabolic Activation: HAMSTER, LIVER, S-9, AROCLOR 1254, Method: STANDARD PLATE) “inactive; negative”; (Test System: AMES SALMONELLA TYPHIMURIUM, Strain/Indicator: TA1535, Metabolic Activation: NONE, Method: PREINCUBATION) “inactive; negative”; (Test System: AMES SALMONELLA TYPHIMURIUM, Strain/Indicator: TA1535, Metabolic Activation: NONE, Method: STANDARD PLATE) “inactive; negative”; (Test System: AMES SALMONELLA TYPHIMURIUM, Strain/Indicator: TA1535, Metabolic Activation: RAT, LIVER, S-9, AROCLOR 1254, Method: STANDARD PLATE) “inactive; negative”. Moreover, the mutagenic call is “inactive; negative” (Test System: AMES SALMONELLA TYPHIMURIUM, Strain/Indicator: TA1535, Metabolic Activation: RAT, LIVER, S-9, SODIUM PHENOBARBITAL AND 5,6-BENZOFLAVONE, Method: PREINCUBATION); “inactive; negative” (Test System: AMES SALMONELLA TYPHIMURIUM, Strain/Indicator: TA1537, Metabolic Activation: HAMSTER, LIVER, S-9, AROCLOR 1254, Method: STANDARD PLATE); “inactive; negative” (Test System: AMES SALMONELLA TYPHIMURIUM, Strain/Indicator: TA1537, Metabolic Activation: NONE, Method: PREINCUBATION); “inactive; negative” (Test System: AMES SALMONELLA TYPHIMURIUM, Strain/Indicator: TA1537, Metabolic Activation: NONE, Method: STANDARD PLATE); “inactive; negative” (Test System: AMES SALMONELLA TYPHIMURIUM, Strain/Indicator: TA1537, Metabolic Activation: RAT, LIVER, S-9, AROCLOR 1254, Method: STANDARD PLATE); “inactive; negative” (Test System: AMES SALMONELLA TYPHIMURIUM, Strain/Indicator: TA1537, Metabolic Activation: RAT, LIVER, S-9, SODIUM PHENOBARBITAL AND 5,6-BENZOFLAVONE, Method: PREINCUBATION). Besides, the mutagenic call by setting is: (Test System: AMES SALMONELLA TYPHIMURIUM, Strain/Indicator: TA1538, Metabolic Activation: HAMSTER, LIVER, S-9, AROCLOR 1254, Method: STANDARD PLATE) “inactive; negative”; (Test System: AMES SALMONELLA TYPHIMURIUM, Strain/Indicator: TA1538, Metabolic Activation: NONE, Method: STANDARD PLATE) “inactive; negative”; (Test System: AMES SALMONELLA TYPHIMURIUM, Strain/Indicator: TA1538, Metabolic Activation: RAT, LIVER, S-9, AROCLOR 1254, Method: STANDARD PLATE) “inactive; negative”; (Test System: E. COLI, Strain/Indicator: WP2UVRA/PKM101, Metabolic Activation: NONE, Method: PREINCUBATION) “inactive; negative”; (Test System: E. COLI, Strain/Indicator: WP2UVRA/PKM101, Metabolic Activation: RAT, LIVER, S-9, SODIUM PHENOBARBITAL AND 5,6-BENZOFLAVONE, Method: PREINCUBATION) “inactive; negative”; (Test System: E. COLI, Strain/Indicator: WP2UVRA, Metabolic Activation: NONE, Method: PREINCUBATION) “inactive; negative”. The mutagenic call runs as follows: (Test System: E. COLI, Strain/Indicator: WP2UVRA, Metabolic Activation: RAT, LIVER, S-9, SODIUM PHENOBARBITAL AND 5,6-BENZOFLAVONE, Method: PREINCUBATION) “inactive; negative”; (Test System: MOUSE LYMPHOMA, Strain/Indicator: L5178Y (TK+/TK-), Metabolic Activation: NONE, Method: SUSPENSION/PLATE) “inactive; negative. reevaluation of results: inconclusive”; (Test System: Mouse lymphoma, Strain/Indicator: L5178Y (tk+/tk-), Metabolic Activation: Rat, Liver, S-9, Aroclor 1254, Method: Suspension/plate) “inactive; inconclusive (previous evaluation negative)”.

In the case of `CN1CCOCC1`, the mutagenic call is, setting by setting: under setting [1], “inactive; negative”; (Test System: AMES SALMONELLA TYPHIMURIUM, Strain/Indicator: TA98, Metabolic Activation: RAT, LIVER, S-9, PCB, Method: PREINCUBATION) “inactive; negative”; under setting [4], “inactive; negative”; (Test System: AMES SALMONELLA TYPHIMURIUM, Strain/Indicator: TA100, Metabolic Activation: RAT, LIVER, S-9, PCB, Method: PREINCUBATION) “inactive; negative”.

Consider `CC(N)=O`, for which the mutagenic call is, setting by setting: (End Point: IN VIVO MICRONUCLEUS, Test System: BLOOD ERYTHROCYTES, Species: MOUSE, Strain/Sex: CD-1/MALE, Route: INTRAPERITONEAL INJECTION) “inactive; negative”; under setting [2], “inactive; negative”; (Test System: AMES SALMONELLA TYPHIMURIUM, Strain/Indicator: TA98, Metabolic Activation: RAT, LIVER, S-9, Method: STANDARD PLATE) “inactive; negative”; under setting [5], “inactive; negative”; (Test System: AMES SALMONELLA TYPHIMURIUM, Strain/Indicator: TA100, Metabolic Activation: RAT, LIVER, S-9, Method: STANDARD PLATE) “inactive; negative”; (Test System: Ames Salmonella typhimurium, Strain/Indicator: YG7108pin3ERb5, Metabolic Activation: None, Method: Standard plate) “inactive; negative”.

Turning to `Br/C=C/Br`, the mutagenic call by setting is: (Test System: AMES SALMONELLA TYPHIMURIUM, Strain/Indicator: TA97, Metabolic Activation: NONE, Method: STANDARD PLATE) “inactive; negative”; (Test System: AMES SALMONELLA TYPHIMURIUM, Strain/Indicator: TA97, Metabolic Activation: RAT, LIVER, S-9, AROCLOR 1254, Method: STANDARD PLATE) “active; positive”; under setting [2], “active; positive”; under setting [3], “active; positive”; under setting [5], “active; positive”; under setting [6], “active; positive”. Also, the mutagenic call is “inactive; negative” (Test System: AMES SALMONELLA TYPHIMURIUM, Strain/Indicator: TA104, Metabolic Activation: NONE, Method: STANDARD PLATE) and “active; positive” (Test System: AMES SALMONELLA TYPHIMURIUM, Strain/Indicator: TA104, Metabolic Activation: RAT, LIVER, S-9, AROCLOR 1254, Method: STANDARD PLATE).
